Measurements from patent US11506670B2, “Method of genome-wide direct identification of electrophile-sensing targets” (Cornell University, priority 2018, dated 2022).
Values joined by “and” are separate entries in the source; they are usually repeats but may differ in a detail not shown here. Equal entries are not always repeated.

Target: Ube2V2 (Homo sapiens, UniProt Q15819)
Assay: T-REX targeted delivery efficiency, in-gel fluorescence (Cy5 Click)
Assay type: cell-based
Parameters: the gene of interest (GOI) was PCR-amplified out from the original plasmid; expressed in transfected cells; host or cells: HEK 293T
Details: HEK293T, Halo-Ube2V2
Method: HEK 293T cells were maintained in 1×MEM+ Glutamax™ media supplemented with 10% FBS, 1×NEAA, 1× sodium pyruvate and 1× Pen-Strep. Cells were grown in a humidified, 5% CO2 incubator at 37° C. For in-gel fluorescence analysis and western blot, ˜0.7-0.8×10^6 HEK 293T cells were seeded in 8 cm^2 tissue culture dishes. 24 h later, cells were transfected using TransIT-2020 transfection reagent per the manufacturer's recommendation. Subsequent steps were performed under dim light. 24-36 h post transfection, monolayer of cells were treated with 25 μM Ht-PreHNE in serum-free media and incubated for 2.5 h. Cells were gently rinsed with serum-free media three times every 30 min over the next 1.5 h. Meanwhile, UV lamps were turned on 10 min prior to UV irradiation time. For samples designated for light exposure, lids were removed from the dishes and cells were placed under 365 nm UV light for 5-8 min. The cells were harvested, washed two times with ice-cold PBS and frozen in liquid nitrogen.
All steps were performed in dark or under dim light. Cells from 8 cm^2 plates were lysed in 30 μL buffer containing 50 mM HEPES (pH 7.6), 150 mM NaCl, 1% Nonidet P-40, 1× Roche cOmplete, mini, EDTA-free protease inhibitor cocktail, and 0.3 mM TCEP by rapid freeze-thaw (×3). […] Protein concentration of the clarified lysate was determined using Bradford assay. […]

Sequence of Ube2V2 (Q15819 whole entry): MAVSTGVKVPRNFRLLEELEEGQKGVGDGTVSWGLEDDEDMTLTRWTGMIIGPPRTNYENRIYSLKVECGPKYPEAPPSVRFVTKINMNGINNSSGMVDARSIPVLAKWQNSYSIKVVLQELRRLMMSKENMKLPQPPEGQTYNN

## CCCCCC(O)/C=C/C=O (stereo not shown) [HNE, 4-hydroxynonenal]
  T-REX targeted delivery efficiency: 15±6% and 15%
